Laboratory results published in ChEMBL document CHEMBL5584231, “Rational design of a new short anticancer peptide with good potential for cancer treatment” (Eur J Med Chem, 2024).
Active and inactive are the calls of the source. No cut-off for these calls is given here. Non-standard residues stand in square brackets, D forms with d. Residues, ends and D or L forms follow the SMILES beside them. Aad = N[C@@H](CCCC(=O)O)C(=O)O

How the values were obtained:
[1] = Stability in mouse serum assessed as half life at 10 mM incubated for 12 hrs by RP-HPLC analysis; assay type: ADME, cell-free
[2] = Acute toxicity in female Balb/c mouse assessed as cellular swelling in liver at approximately LD50 administered as single ip dose by H and E staining based analysis; assay type: organism-based; conditions: in vivo
[3] = system: MCF7; experiment: Induction of apoptosis in human MCF7 cells assessed as live cells at 1 times IC50 measured after 24 hrs by Annexin V-FITC staining based flow cytometry analysis (reference value: 92%); assay type: functional
[4] = Toxicity in female Balb/c mouse implanted with mouse 4T1 cells assessed as reduction in body weight at 12 micromol/kg, ip administered every other day for 2 weeks and measured every 2 days; assay type: organism-based; conditions: in vivo, 336 h, dose 12 µmol/kg
[5] = system: MCF7; experiment: Antimigratory activity in human MCF7 cells assessed as reduction in cell migration at 1 times IC50 measured after 24 hrs by scratch-wound healing assay; assay type: functional, cell-based
[6] = system: Cell membrane; experiment: Disruption of cell membrane in human MCF7 cells assessed as LDH release at 2.5 to 40 uM incubated for 1 hr by fluorescence based microplate reader analysis; assay type: cell membranes; conditions: dose 2.5-40 µM
[7] = Acute toxicity in female Balb/c mouse assessed as heart damage at approximately LD50 administered as single ip dose by H and E staining based analysis; assay type: organism-based; conditions: in vivo
[8] = system: Cell membrane; experiment: Induction of cell membrane damage in human MCF7 cells assessed as nucleic acid leakage at 1 to 2 times IC50 measured after 0.5 to 6 hrs by UV based analysis; assay type: cell membranes; conditions: time 0.5-6 hrs
[9] = Toxicity in female Balb/c mouse implanted with mouse 4T1 cells assessed as animal death at 12 micromol/kg, ip administered every other day for 2 weeks; assay type: organism-based; conditions: in vivo, 336 h, dose 12 µmol/kg
[10] = Toxicity in female Balb/c mouse implanted with mouse 4T1 cells assessed as pathological changes in lung at 12 micromol/kg, ip administered every other day for 2 weeks by H and E staining based analysis; assay type: organism-based; conditions: in vivo, 336 h, dose 12 µmol/kg
[11] = Toxicity in female Balb/c mouse implanted with mouse 4T1 cells assessed as pathological changes in spleen at 12 micromol/kg, ip administered every other day for 2 weeks by H and E staining based analysis; assay type: organism-based; conditions: in vivo, 336 h, dose 12 µmol/kg
[12] = system: Cell membrane; experiment: Disruption of cell membrane integrity in human MCF7 cells assessed as increase in PI fluorescence at 1 times IC50 by laser confocal scanning microscopic analysis; conditions: time 0-120 min, TDE = time-dependent effect
[13] = system: MCF7; experiment: Anti-invasion activity in human MCF7 cells assessed as reduction in number of passing cells on polycarbonate membrane at 1 times IC50 measured after 24 hrs by crystal violet staining based transwell assay; assay type: functional, cell-based
[14] = Stability in mouse serum assessed as compound remaining at 10 mM incubated for 12 hrs by RP-HPLC analysis; assay type: ADME, cell-free; conditions: read-out: Stability
[15] = system: 4T1; experiment: Antitumor activity against mouse 4T1 cells implanted in female Balb/c mouse assessed as reduction in tumor weight at 12 micromol/kg, ip administered every other day for 2 weeks and measured every 2 days relative to control; assay type: functional; set-up: scale not given: the % may be the effect or the level left; conditions: dose 12 µmol/kg
[16] = system: Cell membrane; experiment: Induction of morphological changes in cell membrane of human MCF7 cells assessed as membrane damage at 1 times IC50 incubated for 1 hr by SEM analysis; assay type: cell membranes
[17] = Therapeutic index, ratio of HC10 for mouse RBC to IC50 for cytotoxicity against human HeLa cells; assay type: toxicity, cell-based; conditions: mouse RBC and HeLa cells, read-out: TI
[18] = system: MCF7; experiment: Induction of apoptosis in human MCF7 cells assessed as late apoptotic cells at 1 times IC50 measured after 24 hrs by Annexin V-FITC staining based flow cytometry analysis (reference value: 1.60%); assay type: functional
[19] = system: MCF7; experiment: Cytotoxicity against human MCF7 cells assessed as cell death at 1 times IC50 measured within 30 mins by MTT assay relative to control; assay type: functional; conditions: 0.5 h
[20] = Acute toxicity in female Balb/c mouse assessed as cellular swelling in spleen at approximately LD50 administered as single ip dose by H and E staining based analysis; assay type: organism-based; conditions: in vivo
[21] = system: Cell membrane; experiment: Disruption of cell membrane in human MCF7 cells assessed as LDH release at 40 uM incubated for 1 hr by fluorescence based microplate reader analysis relative to control; assay type: cell membranes
[22] = system: MCF7; experiment: Induction of apoptosis in human MCF7 cells assessed as dead cells at 1 times IC50 measured after 24 hrs by Annexin V-FITC staining based flow cytometry analysis (reference value: 6.41%); assay type: functional
[23] = Toxicity in female Balb/c mouse implanted with mouse 4T1 cells assessed as pathological changes in heart at 12 micromol/kg, ip administered every other day for 2 weeks by H and E staining based analysis; assay type: organism-based; conditions: in vivo, 336 h, dose 12 µmol/kg
[24] = system: Cell membrane; experiment: Disruption of cell membrane integrity in human MCF7 cells assessed as increase in PI fluorescence at 2 times IC50 measured after 0 to 120 mins by laser confocal scanning microscopic analysis; assay type: cell membranes; conditions: time 0-120 min
[25] = system: Cell membrane; experiment: Induction of morphological changes in cell membrane of human MCF7 cells assessed as intracellular outflow at 1 times IC50 incubated for 1 hr by SEM analysis; assay type: cell membranes
[26] = Drug uptake in human MCF7 cells at 5 uM incubated for 1 hr by laser confocal scanning microscopic analysis; assay type: ADME, cell-based; conditions: mcf7, 1 h
[27] = Acute toxicity in female Balb/c mouse assessed as lung damage at approximately LD50 administered as single ip dose by H and E staining based analysis; assay type: organism-based; conditions: in vivo
[28] = Toxicity in female Balb/c mouse implanted with mouse 4T1 cells assessed as pathological changes in liver at 12 micromol/kg, ip administered every other day for 2 weeks by H and E staining based analysis; assay type: organism-based; conditions: in vivo, 336 h, dose 12 µmol/kg
[29] = system: 4T1; experiment: Antitumor activity against mouse 4T1 cells implanted in female Balb/c mouse assessed as reduction in tumor growth at 12 micromol/kg, ip administered every other day for 2 weeks and measured every 2 days; assay type: functional, organism-based; conditions: dose 12.0 µmol/kg
[30] = system: A549; experiment: Cytotoxicity against human A549 cells assessed as inhibition of cell growth incubated for 1 hr by MTT assay; assay type: functional, cell-based; conditions: A549, 1 h
[31] = Toxicity in female Balb/c mouse implanted with mouse 4T1 cells assessed as pathological changes in kidney at 12 micromol/kg, ip administered every other day for 2 weeks by H and E staining based analysis; assay type: organism-based; conditions: in vivo, 336 h, dose 12 µmol/kg
[32] = Stability in mouse serum assessed as compound remaining at 10 mM incubated for 6 hrs by RP-HPLC analysis; assay type: ADME, cell-free; conditions: read-out: Stability
[33] = Therapeutic index, ratio of HC10 for mouse RBC to IC50 for cytotoxicity against RG cells (unknown origin); assay type: toxicity, cell-based; conditions: mouse RBC and RG cells, read-out: TI
[34] = system: MCF7; experiment: Cytotoxicity against human MCF7 cells assessed as reduction in cell survival at 0.5 to 1 times IC50 incubated for 24 hrs in presence of 1 uM paclitaxel by MTT assay; assay type: functional, cell-based
[35] = system: MCF7; experiment: Cytotoxicity against human MCF7 cells assessed as cell viability at 2 times IC50 measured for 30 mins by MTT assay relative to control; assay type: functional; conditions: 0.5 h
[36] = system: Cell membrane; experiment: Induction of morphological changes in cell membrane of human MCF7 cells assessed as severe membrane rupture at 1 times IC50 incubated for 1 hr by SEM analysis; assay type: cell membranes
[37] = system: HeLa; experiment: Cytotoxicity against human HeLa cells assessed as inhibition of cell growth incubated for 1 hr by MTT assay; assay type: functional, cell-based
[38] = system: MCF7; experiment: Induction of apoptosis in human MCF7 cells assessed as early apoptotic cells at 1 times IC50 measured after 24 hrs by Annexin V-FITC staining based flow cytometry analysis (reference value: 0.014%); assay type: functional

SMILES | half-life at 10000 µM [1] [h] | Activity [2] | Activity [3] [%] | Activity [4] | Activity [5] | Activity [6] | Activity [7] | Activity [8] | Activity [9] | Activity [10] | Activity [11] | Activity [12] | Activity [13] | remaining at 12 h, 10000 µM [14] [%] | Activity [15] [%] | Activity [16] | selectivity ratio [17] | Activity [18] [%] | Activity [19] [%] | Activity [20] | other results
CC(C)C[C@H](NC(=O)[C@H](CC(C)C)NC(=O)[C@H](CCCCN)NC(=O)[C@H](CCCCN)NC(=O)[C@H](CC(C)C)NC(=O)[C@H](CC(C)C)NC(=O)[C@H](CCCCN)NC(=O)[C@H](CCCCN)NC(=O)[C@H](CC(C)C)NC(=O)[C@H](CC(C)C)NC(=O)[C@H](CCCCN)NC(=O)[C@H](CCCCN)NC(=O)[C@H](CC(C)C)NC(=O)[C@@H](N)CC(C)C)C(N)=O (H-LLKKLLKKLLKKLL-NH2) | 11.1 | Toxic | 58.1 | Non-Toxic | Active | Active | Non-Toxic | Active | Non-Toxic | Non-Toxic | Non-Toxic | Tde | Active | 45.6 | 28.4 | Active | 1.83 | 19.2 | ~50 | Toxic | Activity [21]: 82%; Activity [22]: 3.79%; Activity [23]: Non-Toxic; Activity [24]: Active; Activity [25]: Active; Drug uptake [26]: Active; Activity [27]: Non-Toxic; Activity [28]: Non-Toxic; Activity [29]: Active; IC50 [30]: 3.65 µM; Activity [31]: Non-Toxic; remaining at 6 h, 10000 µM [32]: > 60%; selectivity ratio [33]: 1.69; Activity [34]: Active; Activity [35]: ~30%; Activity [36]: Active; IC50 [37]: 5.91 µM; Activity [38]: 18.9%
CC(C)C[C@H](NC(=O)[C@H](CCCCN)NC(=O)[C@H](CCCCN)NC(=O)[C@H](CC(C)C)NC(=O)[C@H](CC(C)C)NC(=O)[C@H](CCCCN)NC(=O)[C@H](CCCCN)NC(=O)[C@H](CC(C)C)NC(=O)[C@H](CC(C)C)NC(=O)[C@H](CCCCN)NC(=O)[C@H](CCCCN)NC(=O)[C@H](CC(C)C)NC(=O)[C@@H](N)CC(C)C)C(=O)N[C@@H](CCCC(=O)O)C(N)=O (H-LLKKLLKKLLKKL[Aad]-NH2) | 7.6 | Toxic | 55.9 | Non-Toxic | Active | Active | Non-Toxic | Active | Non-Toxic | Non-Toxic | Non-Toxic | Tde | Active | 31.6 | 52.4 | Active | 35.7 | 13.8 | ~50 | Toxic | Activity [21]: 82.3%; Activity [22]: 4.4%; Activity [23]: Non-Toxic; Activity [24]: Active; Activity [25]: Active; Drug uptake [26]: Active; Activity [27]: Non-Toxic; Activity [28]: Non-Toxic; Activity [29]: Active; IC50 [30]: 10.3 µM; Activity [31]: Non-Toxic; remaining at 6 h, 10000 µM [32]: > 60%; selectivity ratio [33]: 12.7; Activity [34]: Active; Activity [35]: ~30%; Activity [36]: Active; IC50 [37]: 7.15 µM; Activity [38]: 25.9%
